This note sets out measurements from ChEMBL document CHEMBL1909046, “DrugMatrix in vitro pharmacology data”.

One test addresses T1, Progesterone receptor (Bos taurus, UniProt Q690N0).
T1 sequence (Q690N0 whole entry): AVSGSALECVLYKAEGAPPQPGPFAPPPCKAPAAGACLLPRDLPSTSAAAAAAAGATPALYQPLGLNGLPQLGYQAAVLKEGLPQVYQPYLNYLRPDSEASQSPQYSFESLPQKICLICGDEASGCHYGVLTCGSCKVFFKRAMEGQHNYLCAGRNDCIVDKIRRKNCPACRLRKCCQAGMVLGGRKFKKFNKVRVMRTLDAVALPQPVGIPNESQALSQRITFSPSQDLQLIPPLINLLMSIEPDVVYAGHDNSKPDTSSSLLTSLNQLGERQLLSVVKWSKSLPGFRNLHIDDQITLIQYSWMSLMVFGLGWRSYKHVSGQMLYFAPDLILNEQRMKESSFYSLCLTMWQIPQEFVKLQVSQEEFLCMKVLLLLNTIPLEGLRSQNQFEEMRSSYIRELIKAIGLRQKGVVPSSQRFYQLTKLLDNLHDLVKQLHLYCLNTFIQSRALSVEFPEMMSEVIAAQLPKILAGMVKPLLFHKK
As to the kind of experiment: DRUGMATRIX: Progesterone radioligand binding (ligand: [3H] R-5020). The format is tissue-based, Uterus. The following applies: Not Active = under 50% inhibition at 10 µM.

The target in test [1] is T2, Neuropeptide Y receptor type 2 (Homo sapiens, UniProt P49146). Also: in other assays of this panel Not Active means under 50% inhibition at 10 µM.
T2 sequence (P49146 whole entry): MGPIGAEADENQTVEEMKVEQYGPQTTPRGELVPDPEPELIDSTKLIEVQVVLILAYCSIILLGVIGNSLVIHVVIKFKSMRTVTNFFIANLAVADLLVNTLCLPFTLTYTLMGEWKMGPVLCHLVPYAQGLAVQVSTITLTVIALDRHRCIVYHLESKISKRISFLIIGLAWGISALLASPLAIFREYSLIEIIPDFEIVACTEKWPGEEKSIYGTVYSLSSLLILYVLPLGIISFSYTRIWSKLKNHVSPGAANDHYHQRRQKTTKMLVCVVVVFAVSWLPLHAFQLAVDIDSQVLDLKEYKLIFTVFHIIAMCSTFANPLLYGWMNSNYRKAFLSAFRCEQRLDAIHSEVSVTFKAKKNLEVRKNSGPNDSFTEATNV
The format is cell membranes, Membrane. To be noted: kan-ts.

Test [2] addresses T3, Nitric oxide synthase, inducible (Mus musculus, UniProt P29477).
T3 sequence (P29477 whole entry): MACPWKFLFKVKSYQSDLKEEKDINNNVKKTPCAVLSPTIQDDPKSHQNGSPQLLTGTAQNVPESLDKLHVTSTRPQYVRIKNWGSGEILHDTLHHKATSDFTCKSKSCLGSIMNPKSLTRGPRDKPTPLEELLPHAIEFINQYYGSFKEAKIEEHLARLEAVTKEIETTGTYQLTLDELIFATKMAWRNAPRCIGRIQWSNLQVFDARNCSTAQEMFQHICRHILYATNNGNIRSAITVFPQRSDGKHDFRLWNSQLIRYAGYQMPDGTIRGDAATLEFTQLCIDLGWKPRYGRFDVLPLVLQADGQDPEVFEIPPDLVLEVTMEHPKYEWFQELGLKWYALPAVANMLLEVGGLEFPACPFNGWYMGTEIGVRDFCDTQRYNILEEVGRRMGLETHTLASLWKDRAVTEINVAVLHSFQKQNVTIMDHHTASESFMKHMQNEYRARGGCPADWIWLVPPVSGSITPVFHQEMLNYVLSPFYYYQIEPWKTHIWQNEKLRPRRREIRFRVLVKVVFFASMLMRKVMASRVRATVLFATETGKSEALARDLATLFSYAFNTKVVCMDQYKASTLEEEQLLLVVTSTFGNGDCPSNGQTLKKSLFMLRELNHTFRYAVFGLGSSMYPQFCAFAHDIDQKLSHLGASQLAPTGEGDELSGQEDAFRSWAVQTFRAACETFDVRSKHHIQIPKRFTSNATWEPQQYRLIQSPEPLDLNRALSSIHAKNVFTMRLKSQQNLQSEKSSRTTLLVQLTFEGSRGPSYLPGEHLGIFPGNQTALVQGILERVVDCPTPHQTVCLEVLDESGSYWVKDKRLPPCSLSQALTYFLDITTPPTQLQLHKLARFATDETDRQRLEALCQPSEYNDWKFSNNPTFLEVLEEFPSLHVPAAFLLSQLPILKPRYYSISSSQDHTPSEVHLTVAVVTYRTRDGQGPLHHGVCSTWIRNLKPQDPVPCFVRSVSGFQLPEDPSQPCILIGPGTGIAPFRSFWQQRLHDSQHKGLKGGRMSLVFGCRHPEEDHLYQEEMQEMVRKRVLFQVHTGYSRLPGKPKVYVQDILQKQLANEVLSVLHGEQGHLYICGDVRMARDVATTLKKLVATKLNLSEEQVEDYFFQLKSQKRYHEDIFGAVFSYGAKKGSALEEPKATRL
The arrangement: species or system Escherichia coli.

In test [3] the target is T4, Neuropeptide Y receptor type 1 (Homo sapiens, UniProt P25929). Also: in other assays of this panel Not Active means under 50% inhibition at 10 µM.
T4 sequence (P25929 whole entry): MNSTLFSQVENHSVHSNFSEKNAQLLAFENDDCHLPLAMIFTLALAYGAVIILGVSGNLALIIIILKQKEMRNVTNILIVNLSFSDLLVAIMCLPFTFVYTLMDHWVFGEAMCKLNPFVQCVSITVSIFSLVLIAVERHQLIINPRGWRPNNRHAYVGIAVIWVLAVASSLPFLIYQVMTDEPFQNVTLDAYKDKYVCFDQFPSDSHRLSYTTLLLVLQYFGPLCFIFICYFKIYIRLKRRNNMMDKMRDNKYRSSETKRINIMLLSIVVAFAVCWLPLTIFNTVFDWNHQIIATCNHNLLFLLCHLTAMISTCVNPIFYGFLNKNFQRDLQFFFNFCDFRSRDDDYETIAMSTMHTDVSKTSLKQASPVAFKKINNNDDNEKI
The format is cell membranes, Membrane. The following applies: sk-n-mc.

The target of test [4] is Aldo-keto reductase family 1 member B1 (Rattus norvegicus, UniProt P07943). Briefly: biochemical. In kind it is tissue-based, Lens of camera-type eye.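 Also: inhibition of aldose reductase enzyme activity, measured with DL-glyceraldehyde as the substrate; in other assays of this panel Not Active means under 50% inhibition at 10 µM.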
In test [5] the target is Mitogen-activated protein kinase 1 (Homo sapiens, UniProt P28482). Briefly: DRUGMATRIX: Protein Serine/Threonine Kinase, ERK2 enzyme inhibition (substrate: Myelin Basic Protein). Also noted: species or system Escherichia coli. To be noted: Not Active = under 50% inhibition at 10 µM.
Mitogen-activated protein kinase 1, sequence (P28482 whole entry): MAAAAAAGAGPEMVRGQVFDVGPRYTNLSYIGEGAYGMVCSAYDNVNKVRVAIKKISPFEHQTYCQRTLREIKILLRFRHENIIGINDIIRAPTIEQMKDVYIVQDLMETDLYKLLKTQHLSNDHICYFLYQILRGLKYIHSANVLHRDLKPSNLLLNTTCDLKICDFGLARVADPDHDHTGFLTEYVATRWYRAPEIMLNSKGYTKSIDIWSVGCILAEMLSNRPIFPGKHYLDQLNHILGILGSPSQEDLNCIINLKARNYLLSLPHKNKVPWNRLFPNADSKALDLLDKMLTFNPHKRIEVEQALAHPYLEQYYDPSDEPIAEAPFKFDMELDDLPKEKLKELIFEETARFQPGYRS
The target of test [6] is Beta-2 adrenergic receptor (Homo sapiens, UniProt P07550). Briefly: DRUGMATRIX: Adrenergic beta2 radioligand binding (ligand: [3H] CGP-12177). In kind it is cell membranes, CHO, Membrane. To be noted: cho; Not Active = under 50% inhibition at 10 µM.

As to `CC(=O)O[C@H]1C[C@@H]2CC[C@@H]3[C@H](CC[C@@]4(C)[C@H]3C[C@H]([N+]3(C)CCCCC3)[C@@H]4OC(C)=O)[C@@]2(C)C[C@@H]1N1CCCCC1.[Br-]` [VECURONIUM BROMIDE], the half-maximal inhibitory concentration (IC50) result (on Progesterone receptor; in test [1]; in test [2]; in test [3]; in test [4]; in test [5]) was “Not Active” each time. In test [6], the IC50 (in general, the concentration at which inhibition is half-maximal) is on record as “Not Active”.
With `COc1cc(C(=O)NS(=O)(=O)c2ccccc2C)ccc1Cc1cn(C)c2ccc(NC(=O)OC3CCCC3)cc12` [ZAFIRLUKAST], the IC50 entry on Progesterone receptor is “Not Active”; in test [1], “Not Active”; in test [2], “Not Active”; in test [3], “Not Active”; in test [4] it was “Not Active”; in test [5] (read-out: IC50) it was 538 nM. Moreover, in test [6], the IC50 entry is listed as “Not Active”.
For the molecule `Cc1cn([C@H]2C[C@H](N=[N+]=[N-])[C@@H](CO)O2)c(=O)[nH]c1=O` [ZIDOVUDINE], the IC50 result (on Progesterone receptor; in test [1]; in test [2]; in test [3]; in test [4]; in test [5]) was “Not Active” throughout. The IC50 entry in test [6] was “Not Active”.
On to STANNOUS FLUORIDE, for which the IC50 entry (on Progesterone receptor; in test [1]; in test [2]; in test [3]; in test [4]; in test [5]) was “Not Active” in each case. Besides, in test [6], the IC50 result is on record as “Not Active”. In addition, the Ki result (on Progesterone receptor; in test [1]; in test [2]; in test [3]; in test [4]; in test [5]) was “Not Active” each time. In addition, the Ki result in test [6] is “Not Active”.
As for THIMEROSAL, the IC50 result (on Progesterone receptor; in test [1]; in test [2]; in test [3]; in test [4]; in test [5]) was “Not Active” in each case. Besides, the IC50 result in test [6] is reported as “Not Active”. The Ki result (on Progesterone receptor; in test [1]; in test [2]; in test [3]; in test [4]; in test [5]) was “Not Active” in each case. Moreover, the Ki entry in test [6] is recorded as “Not Active”.
